Results reported in US20030170223A1, “Pulmonary vasodilator surfactant compositions and method of use” (Board of Trustees of Michigan State University, priority 2002, published 2003).

What was measured:
[1] = tested on: PA smooth muscle cell contraction in the lungs from new born rats (U46619 vasoconstriction); assay: Non-specific inhibition test: U46619 vasoconstriction response in isolated perfused lungs; set-up: species or system Sprague-Dawley rats; details: U46619 5 ng/mL
Method: (§1) Isolated perfused lung preparation prepared from newborn rats. Male or female newborn (less than 48 hours old) Sprague-Dawley rats are anesthetized with pentobarbital sodium (0.65 mg/kg; ip), and heparin (1000 U/kg) is administered intravenously. Lungs are isolated as follows. Briefly, the lungs and the heart are remove en block and the pulmonary artery (PA) and left atrium are cannulated and perfused with a buffered salt solution (BSS) (NaCl (117 mM), KCl (4 mM), NaHCO3 (18 mM), MgSO4 (0.76 mM), NaHPO4′H2O (1 mM), CaCl2 (1.21 mM), and glucose (1 g/L)) containing bovine serum albumin (0.5% w/v) and indomethacin (10 mg/L). After flushing the pulmonary circulation with perfusate (100-200 mL), the lungs are perfused from a recirculating system (35 mL) at 8 mL/min. Perfusate is maintained at […], pH 7.4, and bubbled with 5% O2, 5% CO2, and 90% N2. Left atrial pressure is maintained at 1 cm H2O2 by elevating the venous outflow cannula. The lungs are ventilated with a small animal respirator using a humidified gas mixture of 21% O2, 5% CO2, and 74% N2 (normoxia) at a rate of 54 breaths/in, a tidal volume of 2-3 mL and an end-expiratory pressure of 3 cm H2O2. Left atrial and PA pressures are continuously recorded on a multichannel strip chart recorder (Grass Instruments, Quincy, Mass.).
Hypoxia-induced changes in pulmonary vascular impedance are represented as the change in PA pressure observed during hypoxic ventilation under constant flow conditions, compared with normoxia, in cm H2O. Two hypoxic challenges are performed and averaged to define the baseline response prior to the experimental intervention, thus allowing each lung to act as its own control. The experimental agents then are added to the reservoir and allowed to recirculate for 5-10 minutes, after which two more hypoxic challenges are administered and averaged to evaluate the effects of the intervention. In the continued presence of the experimental agents, the stable thromboxane A2 analog, U46619 (5 ng/mL) is then added to the reservoir to determine the effect on the ability to respond to a receptor-mediated vasoconstricting agonist. This provided a measure of the specificity of the intervention for the response to hypoxia.
Non-specific inhibition of PA smooth muscle cell contraction in the lungs from new born rats. To determine whether the pharmacological agents that inhibited the HPV response in our study might also affect the response a receptor-mediated vasoconstrictor, studies are carried out using the stable Thromboxane A2 analog, U46619 (5 ng/mL). Experiments are performed to assess the U46619 response before and after the addition of the experimental agents. Briefly, lungs are subjected to a challenge of U46619 and the change in PA pressure is measured. The vasculature is then washed out with fresh perfusate until the PA pressure returned to baseline (approximately 10 minutes elapsed time), after which the experimental agents are administered to the reservoir. After 10 minutes, a second dose of U46619 is added to the reservoir and the change in PA pressure is measured. Only Rotenone blunted the U46619 vasoconstriction at 5 μg/mL. Myxothiazol (50 μg/mL), cyanide (10 μM), ebselen (50 μM), and DDC (1 μM) had no effect on the U46619 vasoconstriction response. DPI (10 μM), rotenone (50 ng/mL), antimycin A (1 ng/mL), PDTC (10 μM), and DIDS (200 μM) augmented the U46619 vasoconstriction response.

PA myocytes [2] = details: 10 μM
Method: To confirm that the loss of DCF fluorescence upon reoxygenation is not due to cell death subsequent to the opening of the mitochondrial permeability transition pore, additional studies are carried out using tetraethyrhodamine methyl ester (TMRE) to assess mitochondrial membrane potential (ΔΨm). This cationic dye equilibrates across the mitochondrial inner membrane in accordance with the AΔΨm, and changes in endothelia fluorescence at these non-quenching concentrations can be used to detect changes in mitochondrial polarization. PA myocytes on collagen-coated cover slips are loaded with TMRE (100 nM) for 45 minutes at 37° C. The cells are then placed in a flow-through chamber on an inverted microscope and perfused with M199 media without serum containing TMRE (10 nM). Fluorescence images are obtained under baseline normoxic conditions (16% O2/5% CO2) until a stable baseline is established. The PO2 of the media is then lowered for 30 mm (1% O2/5% CO2), after which it is restored to normoxia for 30 minutes.

[3] = aqueous solutions; cited from earlier work
[4] = tested on: degradation of IκB-β / NF-κB; details: in vivo and experimental lung transplant preservation media; cited from earlier work
[5] = tested on: isolated lungs from the newborn rats; assay: HPV responses in isolated lungs: PA pressure after agonist; set-up: species or system Sprague-Dawley rats; details: 10 nM in recirculating perfusate
Method: as §1
HPV responses in isolated lungs from the newborn rats. […]

PA myocytes [6] = assay: SYTOX Green membrane permeability check; type: cell-based, rat; details: 300 μM, plasma membrane disruption
Method: Pulmonary microvessel myocyte isolation from the isolated lungs from the newborn rats. Myocytes are isolated using a modification of the method of Marshall et al. (______ (1999). Freshly excised rat heart and lungs are rinsed with phosphate-buffered saline (PBS) containing penicillin and streptomycin (1%). The right ventricle is cannulated and the pulmonary vasculature is flushed with the PBS (30 mL). Using the PA cannula, M199 growth media (30 mL) containing HEPES (25 mM), and penicillin and streptomycin (1%) plus low melting point agarose (0.5%) and iron particles (0.5%), is flushed through the pulmonary vasculature. Because the iron particles are too large to pass through the capillaries, only the arteries contained iron particles. The airways are filled via the trachea with M199 (15 mL) containing low melting point agarose (1%) without iron. The lungs are plunged into cold PBS to cause the agarose to gel. After 10 minutes, the lobes are dissected free and finely minced in a petri dish. […]
In steady state, increases in fluorescence occur when the rate of intracellular oxidation of the dye is accelerated. […] To confirm that the decrease in DCF fluorescence seen upon reoxygenation is not due to a loss of plasma membrane integrity, additional studies are carried out using SYTOX Green dye (100 nM) to detect changes in membrane permeability. […]

PA endothelia myocytes = assay: DCFH oxidation (ROS probe) sensitivity check; type: cell-based, rat
Method: Pulmonary microvessel endothelia isolation and measurement of reactive oxygen species (ROS). ROS generation in pulmonary endothelia and myocytes is assessed using the probe 2′,7′-dichlorofluorescin diacetate (DCFH-DA, 5 μM Molecular Probes), which is continuously present in the perfusate. The diacetate form enters the cells where esterases cleave the acetate group, tending to trap the nonfluorescent 2′,7′-dichlorofluorescin (DCFH) intracellularly. In the presence of H2O2, this probe is oxidized to 2′,7′-dichlorofluorescein (DCF), which is quantified using fluorescence imaging (excitation: 488 nm, emission: 535 nm) in a system equipped with a 12 bit digital camera. Intensity values are reported as percent of initial values, after subtracting background (METAMORPHIC, Universal Imaging, Inc.).
To confirm that the DCFH dye is sensitive to oxidation by H2O2, additional studies are carried out in PA endothelia myocytes superfused with normoxic (16% O2) media in the presence of DCFH-DA (5 μM). […] When the H2O2-containing media is replaced with fresh media containing DCFH without H2O2, intracellular fluorescence decreased toward baseline values. These findings confirm that DCFH oxidation is sensitive to H2O2, and that oxidized DCF can leak out of viable cells and explain the decrease in fluorescence seen at reoxygenation.

antimycin A
effect on U46619 vasoconstriction response ([1]; 1 ng/mL): augmented

C=C(C)[C@H]1Cc2c(ccc3c2O[C@@H]2COc4cc(OC)c(OC)cc4[C@@H]2C3=O)O1 [rotenone]
effect on U46619 vasoconstriction response ([1]; 50 ng/mL): augmented
effect on U46619 vasoconstriction response ([1]; 5 μg/mL, isolated perfused newborn rat lung): blunted

N#CC(C#N)=NNc1ccc(OC(F)(F)F)cc1 [FCCP, carbonyl cyanide p-trifluoromethoxyphenylhydrazone]
TMRE fluorescence (ΔΨm) (PA myocytes [2]): rapid, significant decrease in fluorescence

CO/C(=C/C(N)=O)[C@H](C)[C@H](/C=C/c1csc(-c2csc([C@@H](C)/C=C/C=C/C(C)C)n2)n1)OC [Myxothiazol, myxothiazol]
effect on U46619 vasoconstriction response ([1]; 50 μg/mL): no effect

O=S(=O)(O)c1cc(N=C=S)ccc1C=Cc1ccc(N=C=S)cc1S(=O)(=O)O [DIDS, 4,4′-diisothiocyanatostilbene-2,2′-disulphonic acid]
effect on U46619 vasoconstriction response ([1]; 200 μM): augmented

COC1=C(OC)C(=O)C(C/C=C(\C)CC/C=C(\C)CC/C=C(\C)CC/C=C(\C)CC/C=C(\C)CC/C=C(\C)CC/C=C(\C)CC/C=C(\C)CC/C=C(\C)CCC=C(C)C)=C(C)C1=O [CoQ10, 2,3-dimethoxy-5-methyl-6-decaprenyl-1,4-benzoquinone]
solubility [3]: only lipid soluble

O=c1c2ccccc2[se]n1-c1ccccc1 [ebselen]
effect on U46619 vasoconstriction response ([1]; 50 μM): no effect

CCN(CC)C(=S)S [DDC, diethyldithiocarbamate]
effect on U46619 vasoconstriction response ([1]; 1 μM): no effect

c1ccc2c(c1)[I+]c1ccccc1-2 [DPI, diphenyleneiodonium]
effect on U46619 vasoconstriction response ([1]; 10 μM): augmented

S=C(S)N1CCCC1 [PDTC, pyrrolidine dithiocarbamate]
effect on U46619 vasoconstriction response ([1]; 10 μM): augmented
pulmonary mean arterial pressure (MAP), edema, and cellular infiltration [4]: reduced
pulmonary oxygenation [4]: improved significantly
solubility [3]: poorly soluble

Angiotensin II
increase of PA pressure [5]: ~2 cm H2O

C[C@@H]1CC[C@@]2(OC1)O[C@H]1[C@@H](O)[C@H]3[C@@H]4CC[C@H]5C[C@@H](O[C@@H]6O[C@H](CO)[C@H](O[C@@H]7O[C@H](CO)[C@@H](O)[C@H](O[C@@H]8OC[C@@H](O)[C@H](O)[C@H]8O)[C@H]7O[C@@H]7O[C@H](CO)[C@H](O)[C@H](O[C@@H]8O[C@H](CO)[C@@H](O)[C@H](O)[C@H]8O)[C@H]7O)[C@H](O)[C@H]6O)[C@H](O)C[C@]5(C)[C@H]4CC[C@]3(C)[C@H]1[C@@H]2C [digitonin]
nuclear staining with SYTOX Green (PA myocytes [6]): all cells demonstrated nuclear staining

OO [H2O2]
intracellular DCF fluorescence (PA endothelia myocytes): increased significantly and progressively

B1: recombinant human IκB-α: recombinant human IκB-α which can maintain the inhibitory effect on NF-κB (protein, UniProt P25963 1-317, looked up)
NF-kappa-B inhibitor alpha: MFQAAERPQEWAMEGPRDGLKKERLLDDRHDSGLDSMKDEEYEQMVKELQEIRLEPQEVPRGSEPWKQQLTEDGDSFLHLAIIHEEKALTMEVIRQVKGDLAFLNFQNNLQQTPLHLAVITNQPEIAEALLGAGCDPELRDFRGNTPLHLACEQGCLASVGVLTQSCTTPHLHSILKATNYNGHTCLHLASIHGYLGIVELLVSLGADVNAQEPCNGRTALHLAVDLQNPDLVSLLLKCGADVNRVTYQGYSPYQLTWGRPSTRIQQQLGQLTLENLQMLPESEDEESYDTESEFTEFTEDELPYDDCVFGGQRLTL
solubility [3]: poorly soluble
